# Experimental data reported in ChEMBL document CHEMBL1201862, “PubChem BioAssay data set” (2004).
# Calls of active or inactive are those of the source.
# Key:
# [1] = Luminescence Cell-Based Dose Response HTS to Identify Activators of Luciferase Translation or Activity in H4 […] Cells. [Related pubchem assays: 1829 (Project Summary), 1814 (Primary HTS)]; format: functional
# [2] = biological target: T1, Heat shock factor protein 1 (Mus musculus, UniProt P38532); experiment: decrease of HSF1-responsive luciferase luminescence – cell-based, NIH3T3, dose retest, confirmation (AID 2382); format: functional;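 note: NIH3T3 fibroblasts with HSF1-driven luciferase reporter stressed by proteasome inhibitor MG132; luminescence from HSF1-driven luciferase expression after 8 hours of MG132 stress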
# T1 sequence (P38532 whole entry): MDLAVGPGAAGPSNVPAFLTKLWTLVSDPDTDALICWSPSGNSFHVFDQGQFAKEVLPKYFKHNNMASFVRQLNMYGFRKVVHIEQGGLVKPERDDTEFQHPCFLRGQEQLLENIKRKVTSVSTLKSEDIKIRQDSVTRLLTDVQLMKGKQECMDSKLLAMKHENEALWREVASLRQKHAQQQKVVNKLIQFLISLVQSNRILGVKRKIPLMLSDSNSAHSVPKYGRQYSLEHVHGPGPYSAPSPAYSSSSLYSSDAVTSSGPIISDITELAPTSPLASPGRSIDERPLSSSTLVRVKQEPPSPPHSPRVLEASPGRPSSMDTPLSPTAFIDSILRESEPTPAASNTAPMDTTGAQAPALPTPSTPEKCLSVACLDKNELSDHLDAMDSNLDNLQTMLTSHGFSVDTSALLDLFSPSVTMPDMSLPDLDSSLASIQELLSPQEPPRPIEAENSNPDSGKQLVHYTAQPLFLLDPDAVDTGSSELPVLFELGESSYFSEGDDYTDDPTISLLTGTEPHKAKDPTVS
# [3] = biological target: Cytochrome P450 2C9 (Homo sapiens, UniProt P11712)
# Cytochrome P450 2C9, sequence (P11712 whole entry): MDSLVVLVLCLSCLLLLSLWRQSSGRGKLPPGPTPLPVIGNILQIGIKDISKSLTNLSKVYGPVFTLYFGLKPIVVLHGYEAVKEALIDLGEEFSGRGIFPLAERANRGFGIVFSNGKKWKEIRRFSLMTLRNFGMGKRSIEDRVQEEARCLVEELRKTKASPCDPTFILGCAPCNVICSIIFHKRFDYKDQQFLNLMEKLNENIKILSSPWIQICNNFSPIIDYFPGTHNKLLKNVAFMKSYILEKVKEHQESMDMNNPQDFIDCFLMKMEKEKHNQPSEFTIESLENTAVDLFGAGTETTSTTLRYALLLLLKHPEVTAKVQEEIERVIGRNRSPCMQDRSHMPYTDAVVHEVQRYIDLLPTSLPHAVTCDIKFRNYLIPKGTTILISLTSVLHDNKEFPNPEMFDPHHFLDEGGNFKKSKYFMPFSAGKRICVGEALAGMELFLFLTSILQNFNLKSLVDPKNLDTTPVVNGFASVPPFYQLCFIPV
# [4] = viability of uninfected HEp-2 cells – cell-based, HTS, cytotoxicity control for RSV inhibitor project, dose response (AID 2410); format: functional; conditions: human respiratory syncytial virus
# [5] = biological target: Cytochrome P450 2D6 (Homo sapiens, UniProt P10635)
# Cytochrome P450 2D6, sequence (P10635 whole entry): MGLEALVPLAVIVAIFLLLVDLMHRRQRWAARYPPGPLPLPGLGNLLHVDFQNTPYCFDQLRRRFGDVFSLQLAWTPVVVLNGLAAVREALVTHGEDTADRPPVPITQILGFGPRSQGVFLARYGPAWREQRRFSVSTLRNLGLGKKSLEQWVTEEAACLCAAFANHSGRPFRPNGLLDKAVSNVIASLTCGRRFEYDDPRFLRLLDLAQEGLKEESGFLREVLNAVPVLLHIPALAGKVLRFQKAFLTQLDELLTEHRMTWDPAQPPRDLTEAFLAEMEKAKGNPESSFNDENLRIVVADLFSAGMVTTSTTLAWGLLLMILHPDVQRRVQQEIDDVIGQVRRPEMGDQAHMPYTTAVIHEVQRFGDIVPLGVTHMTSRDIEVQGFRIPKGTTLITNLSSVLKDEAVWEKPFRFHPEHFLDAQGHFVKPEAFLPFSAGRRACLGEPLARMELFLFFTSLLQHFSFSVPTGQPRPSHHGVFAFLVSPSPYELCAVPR
# [6] = biological target: Cytochrome P450 2C19 (Homo sapiens, UniProt P33261); experiment: Cytochrome panel assay with activity outcomes. Panel member name: p450-cyp2c19 Compounds with AC50 equal or less than 10 uM are considered active; format: functional
# Cytochrome P450 2C19, sequence (P33261 whole entry): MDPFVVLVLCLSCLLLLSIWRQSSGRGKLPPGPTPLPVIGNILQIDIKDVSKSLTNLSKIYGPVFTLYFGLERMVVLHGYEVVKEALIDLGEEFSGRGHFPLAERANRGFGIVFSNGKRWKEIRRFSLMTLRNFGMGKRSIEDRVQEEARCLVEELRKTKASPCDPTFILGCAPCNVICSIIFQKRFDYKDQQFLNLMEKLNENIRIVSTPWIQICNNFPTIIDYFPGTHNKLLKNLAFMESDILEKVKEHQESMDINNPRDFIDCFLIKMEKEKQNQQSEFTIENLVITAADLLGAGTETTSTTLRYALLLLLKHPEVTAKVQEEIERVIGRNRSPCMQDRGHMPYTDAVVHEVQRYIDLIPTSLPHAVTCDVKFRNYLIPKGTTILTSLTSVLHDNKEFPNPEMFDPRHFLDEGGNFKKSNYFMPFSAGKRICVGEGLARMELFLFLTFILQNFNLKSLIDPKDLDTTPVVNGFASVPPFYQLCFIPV
# [7] = cells; format: functional
# [8] = NIH-3T3 fibroblast cytotoxicity, dose response, cytotoxicity control, cell-based, fluorescence, Alamar Blue, secondary assay (AID 2327); format: functional;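 note: NIH-3T3 mouse fibroblasts cultured with fluconazole at 8 µg/mL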
# [9] = viability of PTEN-deleted HCT116 cells – cell-based, HCT116 PTEN knockout, dose response (AID 1047); format: functional;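 note: HCT116 colon tumor cells with PTEN knocked out; cells exposed to compound for 60 hours before readout; potency for loss of cell viability measured by luminescence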
# [10] = viability of HCT116 lacking mutant beta-catenin – cell-based, human colon tumor, dose response (AID 1045); format: functional;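 note: HCT116 colon tumor cells with beta catenin knocked out; cells exposed to compound for 60 hours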
# [11] = biological target: Paired box protein Pax-8 (Homo sapiens, UniProt Q06710); experiment: PAX8 transcriptional activity inhibition in RMG-I – RMG-I cells, luciferase, cherry-pick, dose response (AID 687027); format: functional, cell-based;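 note: luciferase reporter driven by Pax8 target thyroperoxidase promoter measured by SteadyGlo luminescence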
# Paired box protein Pax-8, sequence (Q06710 whole entry): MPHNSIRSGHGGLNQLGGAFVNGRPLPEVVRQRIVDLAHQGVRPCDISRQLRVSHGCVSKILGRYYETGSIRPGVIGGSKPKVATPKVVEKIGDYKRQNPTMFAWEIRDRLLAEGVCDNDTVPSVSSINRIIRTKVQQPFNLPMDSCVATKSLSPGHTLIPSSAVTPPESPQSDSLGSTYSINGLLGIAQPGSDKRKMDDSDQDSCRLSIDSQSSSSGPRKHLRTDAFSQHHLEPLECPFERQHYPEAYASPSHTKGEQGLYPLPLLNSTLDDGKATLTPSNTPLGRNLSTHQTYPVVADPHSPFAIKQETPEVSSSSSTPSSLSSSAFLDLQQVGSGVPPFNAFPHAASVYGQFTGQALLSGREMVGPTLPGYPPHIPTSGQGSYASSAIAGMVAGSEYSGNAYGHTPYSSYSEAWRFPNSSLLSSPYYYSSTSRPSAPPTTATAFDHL
compound,measurement,setting,value
Cc1ccc(OC(=O)c2cccc([N+](=O)[O-])c2)c(-n2nc3ccccc3n2)c1,EC50,[1],588 nM (active)
CC1=CCC2C(=O)N(c3ccc(C)c(Br)c3)C(=O)C2C1 (stereo not drawn),EC50,[2],> 195 µM (not active)
Nc1c(-c2cccs2)cnn1-c1nc(-c2ccc(F)cc2)cs1,EC50,[1],304 nM (active)
same,AC50,[3],158 nM (inconclusive)
CC1CCCN(C/C=C/c2ccccc2[N+](=O)[O-])C1 (stereo not drawn),AC50,[3],200 nM (inconclusive)
O=C1CC(N2CC=C(c3ccc(F)cc3)CC2)C(=O)N1c1ccc(F)cc1 (stereo not drawn),EC50,[2],> 195 µM (not active)
COc1ccc(-c2nc(CSCC(=O)NCCC3=CCCCC3)c(C)o2)cc1OC,CC50,[4],> 50 µM (active)
CCC1(C)Cc2c(sc3nnn(CC(=O)Nc4ccc(C)cc4)c(=O)c23)CO1 (stereo not drawn),AC50,[5],22.4 µM (inconclusive)
COc1ccc(Oc2ncc3ncc(=O)n(Cc4cccs4)c3n2)cc1,AC50,[6]; read-out: AC50,25.1 µM (inconclusive)
same,AC50,[5],39.8 µM (inconclusive)
N#C/C(=C(\O)Nc1ccccc1)c1nc2ccccc2[nH]1,IC50,[7],2.43 µM (active)
COc1cccc(-c2cncnc2NCc2cnc(C)cn2)c1,AC50,[5],15.8 µM (inconclusive)
CCCCCCC/C=C\CCCCCCCCC(=O)O,AC50,[6]; read-out: AC50,39.8 µM (inconclusive)
same,AC50,[3],39800 nM (inconclusive)
COc1cc(C(=O)OC2C[C@H]3CC[C@@H](C2)N3C)ccc1O (stereo partly drawn),AC50,[5],7.94 µM (inconclusive)
COc1c(OC(C)=O)ccc(/C=C/c2ccc3cccc(OC)c3n2)c1[N+](=O)[O-],CC50,[4],> 50 µM (active)
CC(C)OC(=O)C(C)Oc1ccc(C(=O)NCCc2ccccc2)cc1 (stereo not drawn),IC50,[7],10.3 µM (active)
Cc1c(C(=O)Nc2ccc3c(c2)OCCO3)cnn1C,EC50,[2],3.49 µM (active)
CC1Cc2ccccc2N1C(=O)COC(=O)c1ccc(S(=O)(=O)N(C)C)cc1 (stereo not drawn),EC50,[2],> 195 µM (not active)
O=C(OCn1nnc2ccccc2c1=O)c1cccs1,IC50,[7],15.6 µM (active)
CCNC(=O)COC(=O)c1cc(-c2ccc(OC)cc2)nc2ccccc12,AC50,[3],2510 nM (inconclusive)
NC(=O)c1c(NC(=O)c2ccccc2F)sc2c1CCCC2,EC50,[8],25.1 µM (active)
COCCCNCC(=O)c1c(N)n(Cc2ccccc2)c(=O)n(C)c1=O,AC50,[6]; read-out: AC50,35.5 µM (inconclusive)
same,AC50,[5],14.1 µM (inconclusive)
O=C(c1ccncc1)N1CCC2(CCN(Cc3ccccc3)CC2)CC1,AC50,[6],inconclusive
same,AC50,[5],12.6 µM (inconclusive)
CSCCC(=O)N1CCCC(CNC(=O)c2ccc(-c3ccccc3)cc2)C1 (stereo not drawn),IC50,[7],11.6 µM (active)
O=C(/C=C/c1ccc(N2CCCCC2)c([N+](=O)[O-])c1)c1ccc(S(=O)(=O)N2CCCC2)cc1,EC50,[9],4.4 µM (active)
same,EC50,[10],3.42 µM (active)
COc1ccccc1C1NC(=O)CCC1[N+](=O)[O-] (stereo not drawn),EC50,[2],> 195 µM (not active)
Cn1c(CCN2CCCC2)nc2cc(NS(=O)(=O)c3ccccc3)ccc21,AC50,[11],6.61 µM (active)
O=C(CNC(=S)N(CCCN1CCOCC1)Cc1cccs1)NCc1ccccc1Cl,EC50,[2],> 195 µM (not active)
O=C(OCc1cc(=O)n2cc(Br)ccc2n1)C1COc2ccccc2O1 (stereo not drawn),EC50,[2],> 195 µM (not active)
